Test results from ChEMBL document CHEMBL4257485, “The critical role of novel benzophenone analogs on tumor growth inhibition targeting angiogenesis and apoptosis” (Medchemcomm, 2018).
Calls of active or inactive are those of the source. The calls are words filed in the database; no cut-off is given here.

Experiments:
MCF7 [1] = test: Cytotoxicity against human MCF7 cells after 48 hrs by MTT assay; format: functional, cell-based; conditions: MCF7, 48 h
HeLa [2] = test: Cytotoxicity against human HeLa cells after 48 hrs by MTT assay; format: functional, cell-based
A549 [3] = test: Cytotoxicity against human A549 cells after 48 hrs by LDH release assay; format: functional, cell-based; conditions: A549, 48 h
NIH3T3 [4] = test: Cytotoxicity against mouse NIH/3T3 cells after 48 hrs by trypan blue exclusion assay; format: cell-based; conditions: NIH3T3, 48 h
MCF7 [5] = test: Cytotoxicity against human MCF7 cells after 48 hrs by trypan blue exclusion assay; format: functional, cell-based; conditions: MCF7, 48 h
MCF7 [6] = test: Cytotoxicity against human MCF7 cells after 48 hrs by LDH release assay; format: functional, cell-based; conditions: MCF7, 48 h
NIH3T3 [7] = test: Cytotoxicity against mouse NIH/3T3 cells after 48 hrs by LDH release assay; format: cell-based; conditions: NIH3T3, 48 h
A549 [8] = test: Cytotoxicity against human A549 cells after 48 hrs by MTT assay; format: functional, cell-based; conditions: A549, 48 h
HeLa [9] = test: Cytotoxicity against human HeLa cells after 48 hrs by trypan blue exclusion assay; format: functional, cell-based
HeLa [10] = test: Cytotoxicity against human HeLa cells after 48 hrs by LDH release assay; format: functional, cell-based
NIH3T3 [11] = test: Cytotoxicity against mouse NIH/3T3 cells after 48 hrs by MTT assay; format: cell-based; conditions: NIH3T3, 48 h
A549 [12] = test: Cytotoxicity against human A549 cells after 48 hrs by trypan blue exclusion assay; format: functional, cell-based; conditions: A549, 48 h
A549 [13] = test: Induction of apoptosis in human A549 cells assessed a necrotic cells after 12 to 15 hrs by annexin-V-FITC/propidium iodide staining-based flow cytometric method (reference value: 10.2%); format: functional
A549 [14] = test: Induction of apoptosis in human A549 cells assessed as cell condensation after 12 to 15 hrs by flow cytometric method; format: functional, cell-based
A549 [15] = test: Cell cycle arrest in human A549 cells assessed as accumulation at G0/G1 phase after 16 hrs by propidium iodide staining-based flow cytometric method (reference value: 70.8%); format: functional
A549 [16] = test: Cell cycle arrest in human A549 cells assessed as accumulation at sub-G1 phase after 16 hrs by propidium iodide staining-based flow cytometric method (reference value: 0.69%); format: functional
A549 [17] = test: Induction of apoptosis in human A549 cells assessed as formation of apoptotic bodies after 12 to 15 hrs by flow cytometric method; format: functional, cell-based
A549 [18] = test: Induction of apoptosis in human A549 cells assessed a late apoptotic cells after 12 to 15 hrs by annexin-V-FITC/propidium iodide staining-based flow cytometric method (reference value: 14.3%); format: functional
A549 [19] = test: Induction of apoptosis in human A549 cells assessed as early apoptotic cells after 12 to 15 hrs by annexin-V-FITC/propidium iodide staining-based flow cytometric method (reference value: 1.65%); format: functional
A549 [20] = test: Cell cycle arrest in human A549 cells assessed as accumulation at S phase after 16 hrs by propidium iodide staining-based flow cytometric method (reference value: 24.8%); format: functional
A549 [21] = test: Cell cycle arrest in human A549 cells assessed as accumulation at G2/M phase after 16 hrs by propidium iodide staining-based flow cytometric method (reference value: 3.44%); format: functional
A549 [22] = test: Induction of apoptosis in human A549 cells assessed as live cells after 12 to 15 hrs by annexin-V-FITC/propidium iodide staining-based flow cytometric method (reference value: 73.8%); format: functional
[23] = tested on: Enterobacteria phage lambda; test: Induction of lambda phage DNA fragmentation by agarose gel electrophoresis
A549 [24] = test: Induction of apoptosis in human A549 cells assessed as necrotic cells at IC50 after 12 to 15 hrs by annexin-V-FITC/propidium iodide staining-based flow cytometric method (reference value: 10.2%); format: functional
A549 [25] = test: Cell cycle arrest in human A549 cells assessed as accumulation at sub-G1 phase at IC50 after 16 hrs by propidium iodide staining-based flow cytometric method (reference value: 0.69%); format: functional
A549 [26] = test: Antiangiogenic activity in human A549 cells xenografted in chicken CAM assessed as reduction in recombinant VEGF165-induced MVD/HPF at 1 mg/ml measured on day 12 post fertilization by hematoxylin and eosin staining-based assay relative to control; format: functional; set-up: scale not given: the % may be the effect or the level left
A549 [27] = test: Downregulation of VEGF expression in human A549 cells by immunoblot method; format: functional, cell-based
A549 [28] = test: Cell cycle arrest in human A549 cells assessed as accumulation at G0/G1 phase at IC50 after 16 hrs by propidium iodide staining-based flow cytometric method (reference value: 70.8%); format: functional
A549 [29] = test: Antitumor activity against human A549 cells xenografted in chicken CAM assessed as reduction in tumor progression at 1 mg/ml measured on day 12 post fertilization by hematoxylin and eosin staining-based assay relative to control; format: functional
A549 [30] = test: Induction of apoptosis in human A549 cells assessed as caspase-3 activation by immunoblot method; format: functional, cell-based
A549 [31] = test: Induction of morphological changes in human A549 cells assessed as membrane blebbing by Giemsa staining-based microscopic method; format: functional, cell-based
A549 [32] = test: Inhibition of migration of human A549 cells at 25 uM after 48 hrs by scratch wound assay relative to control; format: functional; conditions: A549, 48 h
Chorioallantoic membrane [33] = test: Ex vivo angioprotective activity in chicken CAM assessed as inhibition of recombinant VEGF165-induced neovuscularization at 1 mg/ml after 72 hrs; format: functional, tissue-based; conditions: Gallus gallus
A549 [34] = test: Antiangiogenic activity in human A549 cells xenografted in chicken CAM assessed as reduction in recombinant VEGF165-induced MVD/HPF measured on day 12 post fertilization by hematoxylin and eosin staining-based assay; format: functional, cell-based
A549 [35] = test: Induction of apoptosis in human A549 cells assessed as late apoptotic cells at IC50 after 12 to 15 hrs by annexin-V-FITC/propidium iodide staining-based flow cytometric method (reference value: 14.3%); format: functional
A549 [36] = test: Inhibition of migration of human A549 cells at 50 uM after 48 hrs by scratch wound assay relative to control; format: functional; conditions: A549, 48 h
A549 [37] = test: Cell cycle arrest in human A549 cells assessed as increase in accumulation at sub-G0 phase at IC50 after 48 hrs by propidium iodide staining-based flow cytometric method; format: functional
A549 [38] = test: Cell cycle arrest in human A549 cells assessed as accumulation at S phase at IC50 after 16 hrs by propidium iodide staining-based flow cytometric method (reference value: 24.8%); format: functional
Homo sapiens = organism: Homo sapiens; test: Induction of endonuclease activity in cytosolic fraction of human A549 cells assessed as increase in DNA lysis zone at 85 uM by SYBR green dye-based agarose gel electrophoresis
Chorioallantoic membrane [39] = test: Ex vivo angioprotective activity in chicken CAM assessed as decrease in recombinant VEGF165-induced total vessel length at 1 mg/ml after 72 hrs; format: functional, tissue-based; set-up: scale not given: the % may be the effect or the level left; conditions: Gallus gallus
Chorioallantoic membrane [40] = test: In vivo angioprotective activity in chicken CAM assessed as decrease in recombinant VEGF165-induced total vessel length at 1 mg/ml after 72 hrs; format: functional, Gallus gallus; set-up: scale not given: the % may be the effect or the level left
A549 [41] = test: Induction of apoptosis in human A549 cells assessed as live cells at IC50 after 12 to 15 hrs by annexin-V-FITC/propidium iodide staining-based flow cytometric method (reference value: 73.8%); format: functional
A549 [42] = test: Induction of morphological changes in human A549 cells assessed as formation of apoptotic bodies by Giemsa staining-based microscopic method; format: functional, cell-based
A549 [43] = test: Induction of morphological changes in human A549 cells assessed as irregular shape by Giemsa staining-based microscopic method; format: functional, cell-based
A549 [44] = test: Inhibition of colony formation of human A549 cells at 25 to 50 uM pretreated for 6 hrs followed by subsequent incubation for 12 days by crystal violet staining-based assay; format: functional, cell-based
A549 [45] = test: Cell cycle arrest in human A549 cells assessed as accumulation at G2/M phase at IC50 after 16 hrs by propidium iodide staining-based flow cytometric method (reference value: 3.44%); format: functional
Chorioallantoic membrane [46] = test: In vivo angioprotective activity in chicken CAM assessed as inhibition of recombinant VEGF165-induced neovuscularization at 1 mg/ml after 72 hrs; format: functional, Gallus gallus
A549 [47] = test: Cell cycle arrest in human A549 cells assessed as decrease in cell levels at G2/M phase at IC50 after 24 to 48 hrs by propidium iodide staining-based flow cytometric method; format: functional
A549 [48] = test: Induction of apoptosis in human A549 cells assessed as early apoptotic cells at IC50 after 12 to 15 hrs by annexin-V-FITC/propidium iodide staining-based flow cytometric method (reference value: 1.65%); format: functional

O=C(COc1ccc(C(=O)c2ccccc2)cc1)NNC(=O)c1ccc(=O)oc1
IC50 (MCF7 [1]): 93.2 µM
IC50 (HeLa [2]): 99.1 µM
IC50 (A549 [3]): 90.9 µM
IC50 (NIH3T3 [4]): 84.3 µM
IC50 (MCF7 [5]): 92.9 µM
IC50 (MCF7 [6]): 61.1 µM
IC50 (NIH3T3 [7]): 88.2 µM
IC50 (A549 [8]): 98.8 µM
IC50 (HeLa [9]): 89.2 µM
IC50 (HeLa [10]): 96.1 µM
IC50 (NIH3T3 [11]): 87.3 µM
IC50 (A549 [12]): 96.7 µM

O=C(COc1c(F)cc(C(=O)c2ccc(Cl)cc2)cc1Cl)NNC(=O)c1ccc(=O)oc1
IC50 (MCF7 [1]): 86.2 µM
IC50 (HeLa [2]): 87.1 µM
IC50 (A549 [3]): 84.9 µM
IC50 (NIH3T3 [4]): 79.3 µM
IC50 (MCF7 [5]): 90.6 µM
IC50 (MCF7 [6]): 83.8 µM
IC50 (NIH3T3 [7]): 78.6 µM
IC50 (A549 [8]): 88.8 µM
IC50 (HeLa [9]): 89.6 µM
IC50 (HeLa [10]): 85.1 µM
IC50 (NIH3T3 [11]): 77.6 µM
IC50 (A549 [12]): 86.7 µM

CC[C@@]1(O)C(=O)OCc2c1cc1n(c2=O)Cc2cc3ccccc3nc2-1 [CAMPTOTHECIN]
Activity (A549 [13]): 9.12%
Activity (A549 [14]): Active
Activity (A549 [15]): 59.4%
Activity (A549 [16]): 19%
Activity (A549 [17]): Active
Activity (A549 [18]): 23.6%
Activity (A549 [19]): 2.16%
Activity (A549 [20]): 19.2%
Activity (A549 [21]): 2.43%
Activity (A549 [22]): 65.1%

Cc1ccc(C(=O)c2cc(F)c(OCC(=O)NNC(=O)c3cn(C)cn3)c(Cl)c2)cc1
Activity [23]: Active
IC50 (MCF7 [1]): 9.8 µM
Activity (A549 [24]): 17.4%
Activity (A549 [25]): 5.83%
Activity (A549 [26]): 86.2%
Activity (A549 [27]): Active
IC50 (HeLa [2]): 9.9 µM
Activity (A549 [28]): 75.9%
fold change (FC) (A549 [29]): 1.7
IC50 (A549 [3]): 9.1 µM
Activity (A549 [30]): Active
Activity (A549 [31]): Active
inhibition at 25 µM (A549 [32]): 15.6%
IC50 (NIH3T3 [4]): 93.8 µM
inhibition (Chorioallantoic membrane [33]): 26%
Activity (A549 [34]): Dose-dependent effect
Activity (A549 [35]): 48.4%
IC50 (MCF7 [5]): 9.5 µM
inhibition at 50 µM (A549 [36]): 78.8%
Activity (A549 [37]): Active
Activity (A549 [38]): 16.7%
IC50 (MCF7 [6]): 9.4 µM
IC50 (NIH3T3 [7]): 94.9 µM
Activity (Homo sapiens): Active
Activity (Chorioallantoic membrane [39]): 85%
Activity (Chorioallantoic membrane [40]): 85%
IC50 (A549 [8]): 8.8 µM
Activity (A549 [41]): 33.5%
Activity (A549 [42]): Active
Activity (A549 [43]): Active
inhibition (A549 [44]): Active
Activity (A549 [45]): 1.62%
inhibition (INH) (Chorioallantoic membrane [46]): 24%
Activity (A549 [47]): Active
IC50 (HeLa [9]): 10.2 µM
IC50 (HeLa [10]): 10.4 µM
IC50 (NIH3T3 [11]): 94.2 µM
IC50 (A549 [12]): 9.6 µM
Activity (A549 [48]): 0.6%

Cn1cnc(C(=O)NNC(=O)COc2ccc(C(=O)c3ccccc3)cc2)c1
IC50 (MCF7 [1]): 30.6 µM
IC50 (HeLa [2]): 32.9 µM
IC50 (A549 [3]): 31.6 µM
IC50 (NIH3T3 [4]): 98.8 µM
IC50 (MCF7 [5]): 29.6 µM
IC50 (MCF7 [6]): 31.6 µM
IC50 (NIH3T3 [7]): 97.4 µM
IC50 (A549 [8]): 30.6 µM
IC50 (HeLa [9]): 33.2 µM
IC50 (HeLa [10]): 31.9 µM
IC50 (NIH3T3 [11]): 96.9 µM
IC50 (A549 [12]): 29.6 µM
